Measured values taken from patent US20230099837A1, “COMPOSITIONS AND METHODS FOR TREATING NEURODEGENERATIVE DISORDERS WITH RIPK1/RIPK3 INHIBITORS” (Arizona Board of Regents on Behalf of the University of …, priority 2020, published 2023).
“Also recorded” adds a separate entry of the source.

What was measured:
Assay type in all cases: cell-based
[1] = test system: HT-29 cells; assay: Necroptosis flow assay (Annexin V / propidium iodide staining, flow cytometry); conditions: 100 μM compound 30 min before induction with TNF-a/Z-VAD-fmk/SM-164 for 7 hours, vs DMSO
Protocol: Necroptosis was allowed to proceed for 7 hours (hrs) before Annexin V and propidium iodide staining and flow cytometry analysis (FIG. 3). Cells staining positive for either Annexin V or propidium iodide were quantified as necroptotic cells (FIG. 1F). […] Docking results from RMITC03 and RMITC09 indicate most interactions are driven through hydrophobic interactions with a few hydrogen bonds interacting with the backbone of the protein (FIG. 1D-E).
HT-29 cells were grown in DMEM (Corning 10-013-CV) with 10% FBS (HyClone SH3091003)_and incubated at 37° C. and 5% CO2. […] Necroptosis was induced with 25 ng/mL TNF-a (Prospec CYT-223), 20_μM Z-VAD-fmk (AdooQ Bioscience A12373), and 0.1 μM SM-164 (AdooQ Bioscience A15800) for 7 hours in an incubator at 37° C. and 5% CO2. HT-29 cells were trypsinized (Corning 25-053-CI) and washed with DPBS (Corning 21-031-CV) (see, Bundscherer, A. et al. Anticancer Research 33, 3201-3204 (2013)). Cells were processed and stained with Annexin V and propidium iodide as described by manufacturer's protocol in the eBioscience™ Annexin V-FITC Apoptosis Detection Kit (Invitrogen BMS500FI-500). Flow cytometry was performed with MACSQuant® Analyzer 10 and data was processed with Flowlogic™ flow cytometry analysis software.

[2] = test system: RIPK1; assay: Western blot, total RIPK1 in HT-29 cells; conditions: 100 μM, necroptosis induced 3 hrs, normalized to b-actin
Protocol: (§1) If RMITC03 and RMITC09 are disrupting the protein-protein interactions between RIPK3 and MLKL, then the effect of such inhibition should be observed in the activation of MLKL. To test this, HT-29 cells were treated with 100 μM of each compound for 30 min before necroptosis induction. Cells were harvested after 3 hrs with RIPA buffer in order to determine amount of inhibition at each stage of the necroptotic signaling molecules. When comparing the amounts of RIPK1, RIPK3, and MLKL in DMSO treated necroptosis activated cells (T/S/Z) against non necroptosis activated cells (Non-treated samples), there is no statistically significant difference in the amounts of these proteins (FIG. 6A-B).
(§2) HT-29 cells were grown as described above and plated on a 6 well plate. After incubating overnight, cells were incubated with 100 μM of noted compounds in FIG. 3 for 30 min._Necroptosis was induced in the cells for 3 hours, as described in Necroptosis flow assay section, before harvesting with 75 μL RIPA buffer system (Santa Cruz sc-24948) containing 2 mM PMSF, 1 mM Sodium Orthovanadate, and 1% final volume of protease inhibitor. Samples were_centrifuged for 10 min at 20000×g and 4° C. […]
(§3) The secondary Anti-rabbit IgG, HRP-linked antibody (Cell Signaling Technology #7074S) was_used at a dilution of 1:1500 in PBS-T with 5% BSA. […] Data_were quantified with ImageLab™ software. […]

[3] = test system: RIPK3; assay: Western blot, total RIPK3 in HT-29 cells; conditions: 100 μM, necroptosis induced 3 hrs, normalized to b-actin
Protocol: as §1, §2, §3

[4] = test system: MLKL; assay: Western blot, total MLKL in HT-29 cells; conditions: 100 μM, necroptosis induced 3 hrs, normalized to b-actin
Protocol: as §1, §2, §3

[5] = test system: Phospho-RIPK1 (Ser166); assay: Western blot, phosphorylated RIPK1 in HT-29 cells; conditions: 100 μM, necroptosis induced 3 hrs, normalized to b-actin
Excerpt: Autophosphorylation of RIPK1 at Ser166 facilitates RIPK1 kinase activity to induce cell_death (see, Meng, H. Y. et al. Proceedings of the National Academy of Sciences of the United States of America 115, E2001-E2009 (2018)). As such, phosphorylation at Ser166 was used to detect activation of necroptosis. […] Similarly, in the non-necroptosis activated on treated sample, there is also no phosphorylated RIPK1 signal. When comparing the DMSO sample to RMITC03 and RMITC09 treated samples, there is a large amount of activated phosphorylated RIPK1 with no difference between the DMSO control and RMITC03 and RMITC09 compounds.
as §2, §3

[6] = test system: Phospho-RIPK3 (Ser227); assay: Western blot, phosphorylated RIPK3 in HT-29 cells; conditions: 100 μM, necroptosis induced 3 hrs, normalized to b-actin
Protocol: As previously reported, RIPK3 activation from necroptotic stimulus can be readily and accurately measured by phosphorylation at Ser227 (see, Chen, W. Z. et al. Journal of Biological Chemistry 288, 16247-16261 (2013)).
as §2, with “C. The supernatant was mixed with 25 μL of NuPAGE_LDS sample buffer dye 4× containing 0.1 M DTT and heated for 10 min at 90° C. SDS-PAGE_separation and membrane transfer were performed as described under the CETSA protocol.” for “C.”
as §3

[7] = test system: Phospho-MLKL (Ser358); assay: Western blot, phosphorylated MLKL in HT-29 cells; conditions: 100 μM, necroptosis induced 3 hrs, normalized to b-actin
Protocol: RIPK3 is known to activate MLKL through phosphorylation at Ser358 for necroptotic cell death (see, Sun, L. M. et al. Cell 148, 213-227 (2012)). Therefore, the amount of phosphorylated MLKL at Ser358 was used to determine if any inhibition of MLKL activation occurred.
as §2, with “C. The supernatant was mixed with 25 μL of NuPAGE_LDS sample buffer dye 4× containing 0.1 M DTT and heated for 10 min at 90° C. SDS-PAGE_separation and membrane transfer were performed as described under the CETSA protocol.” for “C.”
as §3

Compound	inhibitory effect on necroptosis (cells positive for Annexin V or propidium iodide) [1]	amount of RIPK1 compared to DMSO [2]	amount of RIPK3 compared to DMSO [3]	amount of MLKL compared to DMSO [4]	phosphorylated RIPK1 (Ser166) signal compared to DMSO [5]	phosphorylated RIPK3 (Ser227) compared to DMSO [6]	phosphorylated MLKL (Ser358) compared to DMSO [7]
CC(C)S(=O)(=O)c1ccc2nccc(Nc3ccc4scnc4c3)c2c1 [GSK'872]	largest inhibition of necroptosis	no significant difference	no significant difference	no significant difference	significant decrease; also recorded: no observable phosphorylated RIPK11 signal	significant decrease; also recorded: Inhibition of activated phosphorylated RIPK3 at Ser227	significant decrease; also recorded: lowest levels of phosphorylated MLKL
CN1C(=O)C(Cc2c[nH]c3ccccc23)NC1=S (stereo not shown) [Nec-1]	–	no significant difference	no significant difference	no significant difference	significant decrease; also recorded: no observable phosphorylated RIPK11 signal	did not completely inhibit activation of phosphorylated RIPK3	significant decrease; also recorded: lowest levels of phosphorylated MLKL
